Test results taken from US10047095B2, “sGC stimulators” (IRONWOOD PHARMACEUTICALS, INC., priority 2014, dated 2018).

Columns and labels:
[1] = test system: Guinea pig tracheal smooth muscle; assay: Electrical field stimulated guinea pig tracheal smooth muscle (ex vivo) bronchodilation model; settings: inhibition of EFS-induced baseline contraction; 95% Cl, 0.78-0.94
Procedure: It is possible to assess the bronchodilating effects of sGC stimulators by using the system described below. […]
On each experimental day, a guinea pig is killed by exposure to a rising concentration of CO2 and the trachea removed. […] Tissues are washed with Kreb's buffer and stimulated using the previously determined sub-maximal voltage for 1 hour to establish a stable baseline contraction prior to assessment of compound activity.
A cumulative dose response curve (DRC) to each test substance is then performed and changes in smooth muscle contraction measured. The effect of each test substance in each experiment is expressed as a percentage inhibition of the baseline contraction, normalized to the relevant vehicle controls. […] The data from all three experiments are pooled, the DRC plotted, and the test substance potency and efficacy determined.

[2] = test system: lambs with acute pulmonary hypertension; settings: cited from earlier work; for pulmonary vasodilation / transpulmonary cGMP release / effect on mean arterial pressure / systemic arterial oxygenation: inhaled microparticles; for pulmonary vasodilation / transpulmonary cGMP release: U-46619-induced pulmonary hypertension; for effect on pulmonary vasodilation induced by iNO: BAY 41-8543 inhaled microparticles, ODQ intravenous
[3] = test system: adult sickle cell disease patients; settings: infusions; cited from earlier work
[4] = test system: sickle mice; settings: oral, high doses; cited from earlier work
[5] = molecular target: T1, human recombinant soluble guanylate cyclase enzyme α1β1 (Homo sapiens, UniProt Q02108+Q02153); assay: Purified human recombinant sGC α1β1 enzyme assay in the presence of DETA-NONOate (cGMP HTRF); type: biochemical; settings: 30 uM DETA NONOate; 50% of maximal response of 30 uM Compound Y; read-out: sGC_Enz_HTRF_a1b1 EC50/IC50 Abs (Norm) (nM) Binned
T1 construct: purchased Enzo Life Sciences ALX-201-177
T1 sequence (Q02108 1-690): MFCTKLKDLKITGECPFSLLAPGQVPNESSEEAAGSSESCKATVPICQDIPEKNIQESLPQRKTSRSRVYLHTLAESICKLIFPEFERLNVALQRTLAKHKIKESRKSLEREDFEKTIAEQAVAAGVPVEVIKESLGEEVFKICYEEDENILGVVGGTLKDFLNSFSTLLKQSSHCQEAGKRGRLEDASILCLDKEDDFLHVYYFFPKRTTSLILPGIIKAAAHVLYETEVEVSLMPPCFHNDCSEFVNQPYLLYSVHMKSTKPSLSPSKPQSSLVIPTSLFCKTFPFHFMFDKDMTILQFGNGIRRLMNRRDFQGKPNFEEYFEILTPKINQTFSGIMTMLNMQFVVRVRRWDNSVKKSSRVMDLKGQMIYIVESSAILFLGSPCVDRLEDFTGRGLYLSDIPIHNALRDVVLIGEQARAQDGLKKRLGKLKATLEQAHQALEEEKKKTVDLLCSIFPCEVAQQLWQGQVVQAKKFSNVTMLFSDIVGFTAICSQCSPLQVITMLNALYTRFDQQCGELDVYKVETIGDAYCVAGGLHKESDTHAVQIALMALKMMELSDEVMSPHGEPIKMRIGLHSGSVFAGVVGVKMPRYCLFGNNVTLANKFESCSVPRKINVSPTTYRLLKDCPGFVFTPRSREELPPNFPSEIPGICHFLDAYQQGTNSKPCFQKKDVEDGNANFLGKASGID
T1 sequence (Q02153 1-619): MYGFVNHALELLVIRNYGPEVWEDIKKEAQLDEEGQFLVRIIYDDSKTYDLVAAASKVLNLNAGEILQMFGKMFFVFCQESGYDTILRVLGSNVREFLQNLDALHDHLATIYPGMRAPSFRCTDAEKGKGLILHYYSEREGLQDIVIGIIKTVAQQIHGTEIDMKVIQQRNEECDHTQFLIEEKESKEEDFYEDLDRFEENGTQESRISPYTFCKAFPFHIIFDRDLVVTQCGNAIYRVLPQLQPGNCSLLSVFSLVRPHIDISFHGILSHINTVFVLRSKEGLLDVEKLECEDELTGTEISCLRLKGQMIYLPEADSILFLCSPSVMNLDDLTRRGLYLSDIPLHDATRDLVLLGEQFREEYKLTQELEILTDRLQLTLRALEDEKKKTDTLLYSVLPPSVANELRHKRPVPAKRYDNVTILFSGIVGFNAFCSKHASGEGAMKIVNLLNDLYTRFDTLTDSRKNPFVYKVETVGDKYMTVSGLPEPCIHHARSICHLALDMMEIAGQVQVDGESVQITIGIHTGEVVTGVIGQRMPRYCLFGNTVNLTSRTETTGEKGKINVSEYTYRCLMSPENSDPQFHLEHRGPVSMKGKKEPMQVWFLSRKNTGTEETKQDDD
Procedure: Purified human recombinant soluble guanylate cyclase enzyme α1β1(h sGC) obtained from Enzo Life Sciences (P/N: ALX-201-177) was used to evaluate the activity of test compounds. The assay reactions contained 0.1 M Tris (pH 8.0), 0.5 mg/mL BSA, 2 mM DTT, 4 mM MgCl2, 30 uM DETA NONOate (Enzo Life Science P/N: ALX-430-014), and 12.5 ng/ml human soluble guanylate cyclase enzyme. […] Guanosine 5′-triphosphate (Sigma-Aldrich P/N: G8877) was added to a final concentration of 300 μM and enzyme reactions were incubated (100 μL, 384-well plate format) at 37° C. for 20 minutes. The controls contained 3% DMSO (low control), or 30 uM of Compound Y (high control). After the 20 minute incubation, the reaction was stopped with the addition of 100 μL of ice cold 20% acetic acid.
cGMP concentrations in all samples were determined using the cGMP HTRF (Cisbio P/N: 62GM2PEC) assay per manufacturer's instructions. A cGMP standard curve was fit using a 4-parameter fit (log(inhibitor) vs. response—variable slope) using GraphPad Prism Software v.6. Samples were diluted appropriately to ensure that values fell within the linear range of the standard curve.
Data were fit using a 4-parameter fit (log(agonist) vs. response—variable slope) using GraphPad Prism Software v.6.

[6] = test system: obese mice; settings: cited from earlier work
[7] = test system: mdx mouse; settings: cited from earlier work
[8] = test system: sickle cell disease patients; settings: cited from earlier work
[9] = test system: adult patients with sickle cell disease; settings: acute VOE, vs placebo; cited from earlier work
[10] = test system: NO-deficient rats; settings: cited from earlier work

CC(C)[N+]1(C)[C@@H]2CC[C@H]1CC(OC(=O)C(CO)c1ccccc1)C2 (stereo partly drawn) [Ipratropium bromide]
IC50 [1]: 0.86 nM

Nc1nc(-c2nn(Cc3ccccc3F)c3ncccc23)ncc1C1CC1 [BAY 41-2272]
pulmonary vasodilation [2]: dose dependent pulmonary vasodilation | transpulmonary cGMP release [2]: increased | effect on mean arterial pressure [2]: without significant effect

O=NO [sodium nitrite]
forearm blood flow [3]: enhanced

N=C(N)NCCC[C@H](N)C(=O)O [L-arginine]
Gardos channel activity, dense cell formation and hemolysis [4]: decrease

COc1cc(-c2ncc(F)c(N3CCc4cn[nH]c4C3)n2)nn1Cc1ccccc1F [Compound I-6]
EC50 [5]: 1000 to 5000 nM

Nc1nc(-c2nn(Cc3ccccc3F)c3ncccc23)nc(N)c1N1CCOCC1 [BAY 41-8543]
effect on pulmonary vasodilation induced by iNO [2]: augmented | pulmonary vasodilation [2]: dose dependent pulmonary vasodilation | transpulmonary cGMP release [2]: increased | effect on mean arterial pressure [2]: without significant effect | systemic arterial oxygenation [2]: increased

CC(=O)c1cc(-c2ncc(F)c(N3CCn4c(n[nH]c4=O)C3)n2)nn1Cc1ccccc1F [Compound I-14]
EC50 [5]: 1000 to 5000 nM

O=c1onc2cnc3ccccc3n12 [ODQ, 1H-[1,2,4]oxadiazolo[4,3-a]quinoxalin-1-one]
effect on pulmonary vasodilation induced by iNO [2]: markedly reduced

O=C(O)CCCCN(CCc1cc(F)ccc1OCc1ccc(-c2ccc(C(F)(F)F)cc2)cc1)Cc1ccc(C(=O)O)cc1 [BAY 60-2770]
overactive bladder [6]: ameliorates overactive bladder

CC(=O)c1cc(-c2ncc(F)c(N3CCc4[nH][nH]c(=O)c4C3)n2)nn1Cc1ccccc1F [Compound I-16]
EC50 [5]: 1000 to 5000 nM

CCCc1nn(C)c2c(=O)[nH]c(-c3cc(S(=O)(=O)N4CCN(C)CC4)ccc3OCC)nc12 [sildenafil]
muscle ischemia, injury and fatigue after a brief bout of exercise [7]: alleviate muscle ischemia | serious side effects (VOE, headache, visual disturbance) ([8]; Walk-PHaSST multicenter trial, stopped prematurely): higher frequency of serious side effects | PAP and exercise capacity ([8]; sickle cell disease patients with severe PHT): improvements

nitric oxide [inhaled NO]
pain scores [9]: significantly reduced

Nc1nc(-c2nn(Cc3ccccc3F)c3ncccc23)ncc1C1CC1 [BAY-2272]
bladder dysfunction [10]: protective effects

O=C(O)CCCCN(CCc1ccccc1OCc1ccc(CCc2ccccc2)cc1)Cc1ccc(C(=O)O)cc1 [BAY 58-2667]
pulmonary vasodilation and transpulmonary cGMP release after treatment with ODQ ([2]; inhaled microparticles after ODQ): greatly enhanced | pulmonary vasodilation [2]: dose dependent pulmonary vasodilation | transpulmonary cGMP release [2]: increased | effect on mean arterial pressure [2]: without significant effect | systemic arterial oxygenation [2]: increased

COc1cc(-c2ncc(F)c(N3CCn4c(n[nH]c4=O)C3)n2)nn1Cc1ccccc1F [Compound I-2]
EC50 [5]: 1000 to 5000 nM
